In ChEMBL document CHEMBL6109129, “Discovery of Conformationally Constrained Dihydro Benzo-Indole Derivatives as Metallo-β-Lactamase Inhibitors to Tackle Multidrug-Resistant Bacterial Infections” (J Med Chem, 2025):
≈ marks a conversion by molar mass, not a printed value. Calls of active or inactive are those of the source. The rule behind the calls is not given here.

Experiments:
Klebsiella pneumoniae [1] = test: Anti-infective activity against carbapenem-resistant Klebsiella pneumoniae ATCC BAA 2146 expressing NDM-1 infected in neutropenic female BALB/c mouse deep thigh infection model assessed as reduction in bacterial count at 20 mg/kg,sc pre-infected with bacteria for 2 hrs followed by compound addition and measured after 26 hrs in presence of imipenem; type: functional
Enterobacter cloacae [2] = test: Synergistic antibacterial activity against carbapenem-resistant Enterobacter cloacae BAA-2468 assessed as reduction in microbial growth at 8 ug/ml measured after 16 to 18 hrs in presence of imipenem by microbial dilution method; type: functional; conditions: dose 8 µg/ml, time 16-18 hrs
Klebsiella pneumoniae [3] = test: Synergistic antibacterial activity against carbapenem-resistant Klebsiella pneumoniae 571278 assessed as reduction in microbial growth at 4 ug/ml measured after 16 to 18 hrs in presence of meropenem by microbial dilution method; type: functional; conditions: dose 4 µg/ml, time 16-18 hrs
[4] = Inhibition of IMP-1 (unknown origin) using FC5 as substrate preincubated for 10 mins followed by substrate addition and measured immediately by fluorescence based analysis; set-up: species or system Bacteria
Klebsiella pneumoniae [5] = test: Synergistic antibacterial activity against Klebsiella pneumoniae ATCC BAA 2146 expressing NDM-1 measured after 16 to 18 hrs in presence of imipenem by microbial dilution method; type: functional, organism-based; conditions: time 16-18 hrs
[6] = test system: Klebsiella pneumoniae subsp. pneumoniae; test: Synergistic antibacterial activity against carbapenem-resistant Klebsiella pneumoniae subsp. pneumoniae BAA-2472 assessed as reduction in microbial growth at 8 ug/ml measured after 16 to 18 hrs in presence of meropenem by microbial dilution method; type: functional; conditions: dose 8 µg/ml, time 16-18 hrs
[7] = biological target: Metallo-beta-lactamase type 2 (Bacteria) (UniProt C7C422); test: Induction of thermal stabilization of NDM-1 (unknown origin) assessed as melting temperature at 6.25 uM by differential scanning fluorimetry analysis
[8] = test system: Klebsiella pneumoniae subsp. pneumoniae; test: Synergistic antibacterial activity against carbapenem-resistant Klebsiella pneumoniae subsp. pneumoniae BAA-2470 assessed as reduction in microbial growth at 0.5 ug/ml measured after 16 to 18 hrs in presence of meropenem by microbial dilution method; type: functional; conditions: dose 0.5 µg/ml, time 16-18 hrs
[9] = test system: Klebsiella pneumoniae subsp. pneumoniae; test: Synergistic antibacterial activity against carbapenem-resistant Klebsiella pneumoniae BAA-2470 assessed as reduction in microbial growth at 16 ug/ml measured after 16 to 18 hrs in presence of meropenem by microbial dilution method; type: functional; conditions: dose 16 µg/ml, time 16-18 hrs
Escherichia coli [10] = test: Synergistic antibacterial activity against carbapenem-resistant Escherichia coli BAA-2471 assessed as reduction in microbial growth at 16 ug/ml measured after 16 to 18 hrs in presence of imipenem by microbial dilution method; type: functional; conditions: dose 16 µg/ml, time 16-18 hrs
[11] = Kinetic solubility of the compound in PBS buffer at pH 7.4 measured after 24 hrs by HPLC analysis; type: physicochemical; conditions: read-out: Kinetic_solubility
Escherichia coli [12] = test: Synergistic antibacterial activity against carbapenem-resistant Escherichia coli BAA-2469 assessed as reduction in microbial growth at 16 ug/ml measured after 16 to 18 hrs in presence of meropenem by microbial dilution method; type: functional; conditions: dose 16 µg/ml, time 16-18 hrs
[13] = Metabolic stability in human liver microsomes assessed as intrinsic clearance at 1 uM preincubated for 5 mins followed by NADPH addition and measured up to 60 mins by LC-MS/MS analysis; type: ADME, Microsome; conditions: time < 65 min, read-out: CLH
[14] = Plasma protein binding in mouse assessed as unbound fraction at 10 uM measured after 5 hrs by LC-MS/MS analysis; type: ADME, cell-free
Klebsiella pneumoniae [15] = test: Synergistic antibacterial activity against carbapenem-resistant Klebsiella pneumoniae 538961 assessed as reduction in microbial growth at 16 ug/ml measured after 16 to 18 hrs in presence of imipenem by microbial dilution method; type: functional; conditions: dose 16 µg/ml, time 16-18 hrs
Escherichia coli [16] = test: Synergistic antibacterial activity against carbapenem-resistant Escherichia coli 571307 assessed as reduction in microbial growth at 16 ug/ml measured after 16 to 18 hrs in presence of imipenem by microbial dilution method; type: functional; conditions: dose 16 µg/ml, time 16-18 hrs
Escherichia coli [17] = test: Synergistic antibacterial activity against carbapenem-resistant Escherichia coli 565988 assessed as reduction in microbial growth at 4 ug/ml measured after 16 to 18 hrs in presence of meropenem by microbial dilution method; type: functional; conditions: dose 4 µg/ml, time 16-18 hrs
Escherichia coli [18] = test: Synergistic antibacterial activity against carbapenem-resistant Escherichia coli 565988 assessed as reduction in microbial growth at 16 ug/ml measured after 16 to 18 hrs in presence of imipenem by microbial dilution method; type: functional; conditions: dose 16 µg/ml, time 16-18 hrs
Enterobacter cloacae [19] = test: Synergistic antibacterial activity against carbapenem-resistant Enterobacter cloacae BAA-2468 assessed as reduction in microbial growth at 16 ug/ml measured after 16 to 18 hrs in presence of meropenem by microbial dilution method; type: functional; conditions: dose 16 µg/ml, time 16-18 hrs
[20] = test system: Klebsiella pneumoniae subsp. pneumoniae; test: Synergistic antibacterial activity against carbapenem-resistant Klebsiella pneumoniae subsp. pneumoniae BAA-2472 assessed as reduction in microbial growth at 8 ug/ml measured after 16 to 18 hrs in presence of imipenem by microbial dilution method; type: functional; conditions: dose 8 µg/ml, time 16-18 hrs
Klebsiella pneumoniae [21] = test: Synergistic antibacterial activity against carbapenem-resistant Klebsiella pneumoniae BAA-2473 assessed as reduction in microbial growth at 0.5 ug/ml measured after 16 to 18 hrs in presence of meropenem by microbial dilution method; type: functional; conditions: dose 0.5 µg/ml, time 16-18 hrs
[22] = test system: Klebsiella pneumoniae subsp. pneumoniae; test: Synergistic antibacterial activity against carbapenem-resistant Klebsiella pneumoniae subsp. pneumoniae BAA-2472 assessed as reduction in microbial growth at 0.5 ug/ml measured after 16 to 18 hrs in presence of imipenem by microbial dilution method; type: functional; conditions: dose 0.5 µg/ml, time 16-18 hrs
Enterobacter cloacae [23] = test: Synergistic antibacterial activity against carbapenem-resistant Enterobacter cloacae BAA-2468 assessed as reduction in microbial growth at 16 ug/ml measured after 16 to 18 hrs in presence of imipenem by microbial dilution method; type: functional; conditions: dose 16 µg/ml, time 16-18 hrs
[24] = Metabolic stability in mouse liver microsomes assessed as parent compound remaining at 1 uM measured at 60 mins in presence of NADPH by LC-MS/MS analysis; type: ADME, Microsome; conditions: read-out: Stability
Klebsiella pneumoniae [25] = test: Synergistic antibacterial activity against Klebsiella pneumoniae ATCC BAA 2146 expressing NDM-1 measured after 16 to 18 hrs in presence of meropenem by microbial dilution method; type: functional, organism-based; conditions: time 16-18 hrs
Escherichia coli [26] = test: Synergistic antibacterial activity against carbapenem-resistant Escherichia coli 565988 assessed as reduction in microbial growth at 4 ug/ml measured after 16 to 18 hrs in presence of imipenem by microbial dilution method; type: functional; conditions: dose 4 µg/ml, time 16-18 hrs
Enterobacter cloacae [27] = test: Synergistic antibacterial activity against carbapenem-resistant Enterobacter cloacae BAA-2468 assessed as reduction in microbial growth at 8 ug/ml measured after 16 to 18 hrs in presence of meropenem by microbial dilution method; type: functional; conditions: dose 8 µg/ml, time 16-18 hrs
Klebsiella pneumoniae [28] = test: Synergistic antibacterial activity against carbapenem-resistant Klebsiella pneumoniae 538961 assessed as reduction in microbial growth at 4 ug/ml measured after 16 to 18 hrs in presence of meropenem by microbial dilution method; type: functional; conditions: dose 4 µg/ml, time 16-18 hrs
[29] = Metabolic stability in mouse liver microsomes assessed as intrinsic clearance at 1 uM preincubated for 5 mins followed by NADPH addition and measured up to 60 mins by LC-MS/MS analysis; type: ADME, Microsome; conditions: time < 65 min, read-out: CLH
[30] = biological target: Metallo-beta-lactamase type 2 (Bacteria) (UniProt C7C422); test: Induction of thermal stabilization of NDM-1 (unknown origin) assessed as melting temperature at 3.12 uM by differential scanning fluorimetry analysis
Escherichia coli [31] = test: Synergistic antibacterial activity against carbapenem-resistant Escherichia coli BAA-2471 assessed as reduction in microbial growth at 16 ug/ml measured after 16 to 18 hrs in presence of meropenem by microbial dilution method; type: functional; conditions: dose 16 µg/ml, time 16-18 hrs
Escherichia coli [32] = test: Synergistic antibacterial activity against carbapenem-resistant Escherichia coli 567975 assessed as reduction in microbial growth at 4 ug/ml measured after 16 to 18 hrs in presence of meropenem by microbial dilution method; type: functional; conditions: dose 4 µg/ml, time 16-18 hrs

Sequence of Metallo-beta-lactamase type 2 (Bacteria) (C7C422 whole entry): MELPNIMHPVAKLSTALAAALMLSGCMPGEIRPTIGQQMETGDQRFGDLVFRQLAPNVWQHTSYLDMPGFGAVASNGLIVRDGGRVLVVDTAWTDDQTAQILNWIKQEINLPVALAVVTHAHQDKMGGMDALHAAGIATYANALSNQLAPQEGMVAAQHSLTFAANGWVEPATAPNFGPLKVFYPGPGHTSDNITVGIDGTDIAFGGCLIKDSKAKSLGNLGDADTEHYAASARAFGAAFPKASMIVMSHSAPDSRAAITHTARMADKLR

Compound: COc1ccc(Cl)cc1-c1c(C(=O)O)[nH]c2c1CCc1ccccc1-2
- Activity (Klebsiella pneumoniae [1]): ~2.2 log10CFU/ml
- MIC (Enterobacter cloacae [2]): 64 µg/mL
- MIC (Klebsiella pneumoniae [3]): 32 µg/mL
- IC50 [4]: 14 nM
- Activity (Klebsiella pneumoniae [5]): Active
- MIC [6]: 64 µg/mL
- ΔTm [7]: 17 °C
- MIC [8]: 32 µg/mL
- MIC [9]: 4 µg/mL
- MIC (Escherichia coli [10]): 8 µg/mL
- solubility kinetic at 24 h [11]: 19.7 µg/mL (≈ 55.7 µM)
- MIC (Escherichia coli [12]): 2 µg/mL
- microsomal CLint at 1 µM [13]: 9.8 µL/min/mg
- fraction unbound at 5 h, 10 µM [14]: 0.952
- MIC (Klebsiella pneumoniae [15]): 2 µg/mL
- MIC (Escherichia coli [16]): 2 µg/mL
- MIC (Escherichia coli [17]): 1 µg/mL
- MIC (Escherichia coli [18]): < 0.5 µg/mL
- MIC (Enterobacter cloacae [19]): 4 µg/mL
- MIC [20]: 32 µg/mL
- MIC (Klebsiella pneumoniae [21]): > 64 µg/mL
- MIC [22]: 64 µg/mL
- MIC (Enterobacter cloacae [23]): 32 µg/mL
- remaining at 1 h, 1 µM [24]: 44.2%
- Activity (Klebsiella pneumoniae [25]): Active
- MIC (Escherichia coli [26]): 1 µg/mL
- MIC (Enterobacter cloacae [27]): 8 µg/mL
- MIC (Klebsiella pneumoniae [28]): 16 µg/mL
- microsomal CLint at 1 µM [29]: 12.9 µL/min/mg
- Tm [30]: 14 °C
- MIC (Escherichia coli [31]): 16 µg/mL
- MIC (Escherichia coli [32]): 1 µg/mL
